The source of these data is US8722674B2, “1,3,5-triazine-2,4,6-triamine compound or pharmaceutical acceptable salt thereof, and pharmaceutical composition comprising the same” (Hanall Biopharma Co., Ltd., priority 2007, dated 2014).

The subject of data set [1] is HepG2 cells. Briefly: Measurement of gluconeogenesis (14C-lactate). The conditions noted are these: 24 h treatment, lower is better. Format: cell-based. As for the experimental part:
(§1) Metformin that is widely used in type 2 diabetic patients inhibits the formation of glucose, the synthesis of cholesterol and triglyceride in liver cells and promote the absorption of glucose from blood vessels in the muscle cells. […] In the case of the ability to form cholesterol, triglyceride and glucose, the lower the numerical value, the better the effect. Numerical values for a control group become reference values.
As a hepatic cell model, HepG2 cells were cultured in 10% serum-containing high glucose media, and then treated with each of the compounds for 24 hours. Then, the cells were treated with 0.5 uCi 14C-lactate and 10 mM L-lactate, and cultured for 4 hours. After cultivation, the media of the cells were removed, and the cells were washed with PBS, treated with 0.1N NaOH and left to stand at room temperature for 1 hour. Then, the cells were neutralized with 1N HCl, and the amount of glucose formed in the cells was measured with a liquid scintillation counter. […] A lower measurement value means a stronger blood glucose lowering activity.

Data set [2] relates to C2C12 cells. Briefly: Measurement of glucose absorption (3H-deoxy-glucose). The conditions noted are these: for effect of reducing insulin resistance, times better than the control group: absorption effect divided by average percent of control group (metformin 2 mM), multiplied by 20. It is filed as cell-based.
Text: as §1
As a muscle cell model, C2C12 cells were induced to differentiate into muscle cells in 2% bovine fetal serum for 6 days. The C2C12 cells which differentiated into muscle cells were treated with each of the compounds in serum-free low glucose media, and then cultured with 1 μM of insulin for 24 hours. After cultivation, the cells were treated with 1 μCi 3H-deoxy-glucose and 10 μM deoxy-glucose at 37° C. for 15 minutes. After treatment, the media were removed, and the cells were washed twice with PBS. The washed cells were treated with 0.1 N NaOH and neutralized with 1N HCl. The amount of glucose absorbed into the cells was measured with a liquid scintillation counter. The effect of the compounds was determined by selecting a compound showing an absorption effect of at least 200%, dividing the absorption effect by the average percent of the control group, and then multiplying the divided value by […]. A higher measurement value means a stronger ability to reduce insulin resistance.

Data set [3] relates to HepG2 cells. Briefly: Measurement of triglyceride (Amplex red fluorescence). It is filed as cell-based. Particulars: 24 h treatment, lower is better. On the procedure: as §1
(§2) As a hepatic cell model, HepG2 cells were cultured in 1% serum-containing media for 24 hours, and then treated with each of the compounds for 24 hours. Then, the cells were disrupted with lysis buffer (0.1M potassium phosphate, pH 7.4, 0.05 M NaCl, 5 mM cholic acid, 0.1% Triton X-100). To the disrupted cells, the same volume of a reaction solution (0.76 U/ml glycerol kinase, 151333 U/ml peroxidase, 22.2 U/ml glycerol oxidizing agent, and 300 μM Amplex red as a fluorescent factor) was added and allowed to react at 37° C. for 30 minutes. After completion of the reaction, the cells were measured with a fluorometer at a wavelength of 560/590 nm (ex/em), thus quantifying the amount of triglyceride formed in the cells. A lower measurement value means an increased lipid production inhibitory ability.

For data set [4], the system named is HepG2 cells. Put plainly: Measurement of cholesterol synthesis ability (Amplex red fluorescence). Format: cell-based. Particulars: HepG2 cells, 24 h treatment, lower is better.
Text: as §1
as §2, with “model, HepG2 cells were used to measure cholesterol synthesis inhibitory ability, which is the important function of AMPK. The hepatic cell model” for “model,”, “(0.1 M” for “(0.1M”, “(2” for “(0.76”, “cholesterol oxidizing agent, 2” for “glycerol kinase, 151333”, “0.2” for “22.2”, “cholesterol esterase,” for “glycerol oxidizing agent,”

Where [5] appears, read: Homo sapiens, 100 uM, read-out: gluconeogenesis (glucose synthesis ability), % control.
[6] abbreviates: Mus musculus, 100 uM, differentiated C2C12 muscle cells, with 1 μM insulin 24 h, higher is better, read-out: glucose absorption, % control.
Where [7] appears, read: Homo sapiens, 100 uM, read-out: triglyceride synthesis ability, % control.
Where [8] appears, read: Homo sapiens, 100 uM, read-out: cholesterol synthesis ability, % control.
The mark [9] stands for this setting: Homo sapiens, 500 uM, read-out: gluconeogenesis (glucose synthesis ability), % control.
Where [10] appears, read: Mus musculus, 250 uM, differentiated C2C12 muscle cells, with 1 μM insulin 24 h, higher is better, read-out: glucose absorption, % control.
Where [11] appears, read: Homo sapiens, 250 uM, read-out: triglyceride synthesis ability, % control.
[12] abbreviates: Homo sapiens, 250 uM, read-out: cholesterol synthesis ability, % control.

Where a name gives a salt, the structure may show the parent alone.

For the compound `COc1cc(Nc2nc(N)nc(N(C)C)n2)cc(OC)c1` [Example 16, N2-(3,5-dimethoxyphenyl)-N4,N4-dimethyl-1,3,5-triazine-2,4,6-triamine], the melting point – broadly, the temperature of the solid-liquid transition – lay in the range of 148 to 150 °C. The activity at 100 µM in data set [1] (setting [5]) was found to be 87.6%. For the same compound, the activity at 100 µM in data set [2] (setting [6]) came out at 63.2%. The activity at 100 µM in data set [3] (setting [7]) was 79.5%. The activity at 100 µM in data set [4] (setting [8]) was found to be 66.9%.
The matching figures for `Cc1ccccc1Nc1nc(N)nc(N(C)C)n1` [Example 33, N2,N2-dimethyl-N4-o-tolyl-1,3,5-triazine-2,4,6-triamine]: 122 to 143 °C, 95.6%, 148%, 91.9% and 65.8%.
For the compound `CN(C)c1nc(N)nc(N2CCCCCC2)n1` [Example 34, 6-(azepan-1-yl)-N2,N2-dimethyl-1,3,5-triazine-2,4-diamine], the melting point is 240 to 249 °C. For the same compound, in data set [1] (setting [5]), the activity at 100 µM came out at 39.4%. In addition, the activity at 100 µM in data set [2] (setting [6]) worked out at 203%. The “effect of reducing insulin resistance, times better than the control group” value in data set [2] is “about 12 times”. Moreover, in data set [3] (setting [7]), the activity at 100 µM was 70.9%. Besides, the activity at 100 µM in data set [4] (setting [8]) came to 52.6%.
In the case of `CCc1ccccc1Nc1nc(N)nc(N(C)C)n1` [Example 36, N2-(2-ethylphenyl)-N4,N4-dimethyl-1,3,5-triazine-2,4,6-triamine], the activity at 100 µM in data set [1] (setting [5]) was found to be 42.1%; in data set [2] (setting [6]), 100%; in data set [3] (setting [7]) it was 75.1%; in data set [4] (setting [8]), 51%.
`CCCCCCc1ccc(Nc2nc(N)nc(N(C)C)n2)cc1` [Example 42, N2-(4-hexylphenyl)-N4,N4-dimethyl-1,3,5-triazine-2,4,6-triamine] had a melting point of 132 to 168 °C. Further, the activity at 100 µM in data set [3] (setting [7]) came to 34.3%. For the same compound, the activity at 100 µM in data set [4] (setting [8]) was found to be 39%.
On to `Nc1nc(N)nc(NCc2ccc3c(c2)OCO3)n1` [Example 6, N2-(benzo[d][1,3]dioxol-5-ylmethyl)-1,3,5-triazine-2,4,6-triamine], for which the melting point was 140.8 to 142.9 °C. Also, the activity at 500 µM in data set [1] (setting [9]) is 82.3%. Besides, the activity at 250 µM in data set [2] (setting [10]) is 114%. The activity at 250 µM in data set [3] (setting [11]) came to 108%. Further, the activity at 250 µM in data set [4] (setting [12]) was 92.7%.
Compound `CN(C)c1nc(N)nc(Nc2cc(Cl)cc(Cl)c2)n1` [Example 24, N2-(3,5-dichlorophenyl)-N4,N4-dimethyl-1,3,5-triazine-2,4,6-triamine] yielded a melting point of 240 to 264 °C. Also, the activity at 100 µM in data set [1] (setting [5]) turned out to be 49.9%. Further, in data set [2] (setting [6]), the activity at 100 µM came out at 136%. In data set [3] (setting [7]), the activity at 100 µM came to 41.7%. Moreover, in data set [4] (setting [8]), the activity at 100 µM stood at 55.8%.
With `CN(C)c1nc(N)nc(NCc2cccnc2)n1` [Example 4, N2,N2-dimethyl-N4-(2-pyridine-3-ylmethyl)-1,3,5-triazine-2,4,6-triamine], the “gluconeogenesis (glucose synthesis ability), % control” value in data set [1] (500 uM) came to 92.14%. Also, in data set [2] (250 uM, differentiated C2C12 muscle cells, with 1 μM insulin 24 h, higher is better), the “glucose absorption, % control” value is reported as 143.92%. Also, the “triglyceride synthesis ability, % control” value in data set [3] (250 uM) is 99.48%. For the same compound, in data set [4] (250 uM), the “cholesterol synthesis ability, % control” value stood at 93.66%.
As to `CN(C)c1nc(N)nc(NCc2ccc3c(c2)OCO3)n1` (as salt: HCl) [Example 1, N2-(benzo[d][1,3]dioxol-5-ylmethyl)-N4,N4-dimethyl-1,3,5-triazine-2,4,6-triamine], the melting point was 193.7 to 219.6 °C.
`CN(C)c1nc(N)nc(N2CCCC2)n1` [Example 35, N2,N2-dimethyl-6-(pyrrolidin-1-yl)-1,3,5-triazine-2,4-diamine]: the activity at 100 µM in data set [1] (setting [5]) amounted to 91.4%; in data set [2] (setting [6]), 285%; in data set [3] (setting [7]), 99.9%; in data set [4] (setting [8]), 69%. Besides, the “effect of reducing insulin resistance, times better than the control group” value in data set [2] is listed as “about 17 times”.
For `CN(C)c1nc(N)nc(NCc2ccc3c(c2)OCO3)n1` [Example 1, N2-(benzo[d][1,3]dioxol-5-ylmethyl)-N4,N4-dimethyl-1,3,5-triazine-2,4,6-triamine], the activity at 500 µM in data set [1] (setting [9]) is 105%. Also, the activity at 250 µM is 133% in data set [2] (setting [10]), 103% in data set [3] (setting [11]) and 81.1% in data set [4] (setting [12]).
For `CN(C)C(=N)N=C(N)N` [Metformin, reference compound], the activity at 2000 µM in data set [1] (Homo sapiens, 2 mM, read-out: gluconeogenesis (glucose synthesis ability), % control) is 52.7%; in data set [2] (Mus musculus, 2 mM, differentiated C2C12 muscle cells, with 1 μM insulin 24 h, higher is better, read-out: glucose absorption, % control), 329%; in data set [3] (Homo sapiens, 2 mM, read-out: triglyceride synthesis ability, % control), 70.6%; in data set [4] (Homo sapiens, 2 mM, read-out: cholesterol synthesis ability, % control) it was 83.5%.
For `CC(C)c1ccc(Nc2nc(N)nc(N(C)C)n2)cc1` [Example 28, N2-(4-isopropylphenyl)-N4,N4-dimethyl-1,3,5-triazine-2,4,6-triamine], the activity at 100 µM in data set [1] (setting [5]) is 45.4%; in data set [2] (setting [6]), 173%; in data set [3] (setting [7]), 43.2%; in data set [4] (setting [8]), 65.9%.
The like results for `CN(C)c1nc(N)nc(Nc2ccccc2F)n1` [Example 30, N2-(2-fluorophenyl)-N4,N4-dimethyl-1,3,5-triazine-2,4,6-triamine] were, in that order, 85.5%, 133%, 81.1% and 75.7%.
With `CN(C)c1nc(N)nc(Nc2ccc(C(C)(C)C)cc2)n1` [Example 22, N2-(4-tert-butylphenyl)-N4,N4-dimethyl-1,3,5-triazine-2,4,6-triamine], the melting point fell in the range of 253 to 263 °C. Further, the activity at 100 µM in data set [3] (setting [7]) was 34.4%. Also, the activity at 100 µM in data set [4] (setting [8]) is 53%.
Regarding `CN(C)c1nc(N)nc(Nc2cccc(Br)c2)n1` [Example 2, N2-(3-bromophenyl)-N4,N4-dimethyl-1,3,5-trizaine-2,4,6-triamine], in data set [1] (100 uM), the “gluconeogenesis (glucose synthesis ability), % control” value is 51.89%. Besides, the “glucose absorption, % control” value in data set [2] (100 uM, differentiated C2C12 muscle cells, with 1 μM insulin 24 h, higher is better) came out at 35.23%. The “triglyceride synthesis ability, % control” value in data set [3] (100 uM) is 19.11%. The “cholesterol synthesis ability, % control” value in data set [4] (100 uM) came out at 23.15%.
As for `CN(C)c1nc(N)nc(Nc2ccc(Cl)c(Cl)c2)n1` [Example 17, N2-(3,4-dichlorophenyl)-N4,N4-dimethyl-1,3,5-triazine-2,4,6-triamine], the activity at 100 µM in data set [1] (setting [5]) is 15.2%; in data set [2] (setting [6]) it was 7.29%; in data set [3] (setting [7]), -12.1%; in data set [4] (setting [8]) it was 11.3%.
